According to patent US20230234967A1, “Fused Azole Heterocycles as AHR Antagonists” (Senda Biosciences, Inc., priority 2021, published 2023):

Biological target: T1, AHR (Homo sapiens, UniProt P35869)
T1 construct: other cell line with a DRE-luciferase reporter stably transfected; endogenous in cells; host or cells: Human HepG2 liver carcinoma AhR-Lucia reporter cells
T1 sequence (P35869 11-848): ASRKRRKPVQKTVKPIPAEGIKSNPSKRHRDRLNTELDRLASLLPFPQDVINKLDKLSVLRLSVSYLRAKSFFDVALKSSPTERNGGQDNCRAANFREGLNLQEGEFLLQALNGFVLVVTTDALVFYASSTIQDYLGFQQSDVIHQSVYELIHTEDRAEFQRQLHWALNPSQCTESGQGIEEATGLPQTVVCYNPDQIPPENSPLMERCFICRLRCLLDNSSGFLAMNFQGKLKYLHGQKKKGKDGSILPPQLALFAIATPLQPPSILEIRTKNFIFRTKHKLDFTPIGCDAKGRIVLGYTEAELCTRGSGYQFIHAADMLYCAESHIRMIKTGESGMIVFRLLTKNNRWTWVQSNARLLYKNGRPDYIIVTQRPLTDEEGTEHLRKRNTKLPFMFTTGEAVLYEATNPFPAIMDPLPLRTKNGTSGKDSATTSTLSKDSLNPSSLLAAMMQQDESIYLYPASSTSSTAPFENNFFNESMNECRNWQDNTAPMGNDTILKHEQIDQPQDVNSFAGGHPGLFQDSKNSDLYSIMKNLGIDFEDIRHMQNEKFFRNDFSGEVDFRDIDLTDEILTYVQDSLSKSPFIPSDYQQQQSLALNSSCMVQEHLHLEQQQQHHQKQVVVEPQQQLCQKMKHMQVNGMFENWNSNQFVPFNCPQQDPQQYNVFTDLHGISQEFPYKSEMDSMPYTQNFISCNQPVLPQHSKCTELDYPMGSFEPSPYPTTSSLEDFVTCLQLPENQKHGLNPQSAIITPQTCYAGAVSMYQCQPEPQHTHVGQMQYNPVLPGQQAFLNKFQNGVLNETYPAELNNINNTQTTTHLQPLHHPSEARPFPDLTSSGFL
Assay: DRE-Luciferase Reporter Assay (HepG2 AhR-Lucia reporter cells)
Assay type: cell-based
Conditions: AHR activating ligand at its EC50, luciferase read-out, read-out: HEPG2 Luc IC50
Text: Example 27: DRE-Luciferase Reporter Assay
AHR binds to Dioxin Responsive Elements (DRE) upstream of genes that it activates. One measure of AHR activity is activation of a reporter gene, such as luciferase, downstream of one or multiple DRE elements. Luciferase activity will reflect activation and inhibition of AHR in the cells expressing his reporter. 20000 Human HepG2 liver carcinoma—AhR-Lucia reporter cells or Human HT29 colon adenocarcinoma—AhR reporter cells or other cell line with a DRE-luciferase reporter stably transfected were plated in Eagle's Minimal Essential Medium, 10% heat-inactivated FBS, 1×non-essential amino acids Pen-Strep (10,000 U/mL) and Normocin (100 ug/mL) in plates (96-well, 384-well or other plates) and incubated overnight at 37° C. in a CO2 incubator and treated with and without AhR antagonists at a log dilution starting at 100 uM.
After 1 hr that cells were plated an AHR activating ligand, such as TCDD, kynurenine, ITE (2-(1H-indole-3-ylcarbonyl)-4-thiazolecarboxylic methyl ester), VAF347, BNF (beta-naphthoflavone), FICZ (6-formylindolo(3,2-b) carbazole) or other AHR ligands at their specific EC50 concentration, were added to the cells with or without AHR antagonist.
Cells were incubated for 24 or 48 hours or another time point and then, supernatant was analyzed for determination of luciferase activity as a read-out of the AHR activation or inhibition. Luciferase was measured with the commercial kit QUANTI-Luc™ assay solution kit from Invivogen following the manufacturer's instructions.
The level of luciferase with only agonist ligand added was the maximum signal while the luciferase with […] was the minimum signal. IC50 values were determined as the concentration which inhibits half of the luciferase activity. “A” indicates an IC50 value less than 100 nM, “B” indicates an IC50 between 100 and 500 nM, “C” indicates an IC50 above 500 nM.

Compound	IC50
Cn1nccc1C(=O)Nc1nc2ccc(-c3ccccc3C(F)(F)F)nc2s1 [Product 1, 1-methyl-N-(5-(2-(trifluoromethyl)phenyl)thiazolo[5,4-b]pyridin-2-yl)-1H-pyrazole-5-carboxamide]	> 500 nM
Cc1ccccc1-c1ccc2nc(NC(=O)c3ncnn3C)sc2n1 [Product 2, 1-Methyl-N-(5-(o-tolyl)thiazolo[5,4-b]pyridin-2-yl)-1H-1,2,4-triazole-5-carboxamide]	100 to 500 nM
Cn1nccc1C(=O)Nc1nc2ccc(-c3ccccc3C(F)F)nc2s1 [Product 3, N-(5-(2-(difluoromethyl)phenyl)thiazolo[5,4-b]pyridin-2-yl)-1-methyl-1H-pyrazole-5-carboxamide]	100 to 500 nM
COc1ccccc1-c1ccc2nc(NC(=O)c3ncnn3C)sc2n1 [Product 4, N-(5-(2-methoxyphenyl)thiazolo[5,4-b]pyridin-2-yl)-1-methyl-1H-1,2,4-triazole-5-carboxamide]	100 to 500 nM
Cn1nccc1C(=O)Nc1nc2ccc(-c3cc(F)ccc3C(F)F)nc2s1 [Product 5, N-(5-(2-(difluoromethyl)-5-fluorophenyl)thiazolo[5,4-b]pyridin-2-yl)-1-methyl-1H-pyrazole-5-carboxamide]	> 500 nM
Cn1ncnc1C(=O)Nc1nc2ccc(-c3ccccc3C(F)(F)F)nc2s1 [Product 6, 1-Methyl-N-(5-(2-(trifluoromethyl)phenyl)thiazolo[5,4-b]pyridin-2-yl)-1H-1,2,4-triazole-5-carboxamide]	> 500 nM
Cn1ncnc1C(=O)Nc1nc2ccc(-c3ccccc3C(F)F)nc2s1 [Product 7, N-(5-(2-(difluoromethyl)phenyl)thiazolo[5,4-b]pyridin-2-yl)-1-methyl-1H-1,2,4-triazole-5-carboxamide]	> 500 nM
Cc1ccccc1-c1ccc2nc(NC(=O)c3cccnc3)sc2n1 [Product 9, N-(5-(o-tolyl)thiazolo[5,4-b]pyridin-2-yl)nicotinamide]	> 500 nM
Cc1ccccc1-c1ccc2nc(NC(=O)c3ccncc3)sc2n1 [Product 10, N-(5-(o-tolyl)thiazolo[5,4-b]pyridin-2-yl)isonicotinamide]	> 500 nM
Cn1ncnc1C(=O)Nc1nc2ccc(-c3cc(F)ccc3C(F)F)nc2s1 [Product 11, N-(5-(2-(difluoromethyl)-5-fluorophenyl)thiazolo[5,4-b]pyridin-2-yl)-1-methyl-1H-1,2,4-triazole-5-carboxamide]	> 500 nM
COc1ccccc1-c1ccc2nc(NC(=O)c3cccnc3)sc2n1 [Product 13, N-(5-(2-methoxyphenyl)thiazolo[5,4-b]pyridin-2-yl)nicotinamide]	100 to 500 nM
COc1ccccc1-c1ccc2nc(NC(=O)c3ccncc3)sc2n1 [Product 14, N-(5-(2-methoxyphenyl)thiazolo[5,4-b]pyridin-2-yl)isonicotinamide]	< 100 nM
COc1cccc(-c2ccc3nc(NC(=O)c4ccnn4C)sc3n2)c1 [Product 16, N-(5-(3-methoxyphenyl)thiazolo[5,4-b]pyridin-2-yl)-1-methyl-1H-pyrazole-5-carboxamide]	100 to 500 nM
CN(C)C(=O)c1cccc(-c2ccc3nc(NC(=O)c4ccnn4C)sc3n2)c1 [Product 17, N-(5-(3-(dimethylcarbamoyl)phenyl)thiazolo[5,4-b]pyridin-2-yl)-1-methyl-1H-pyrazole-5-carboxamide]	> 500 nM
CN(C)c1cccc(-c2ccc3nc(NC(=O)c4ccnn4C)sc3n2)c1 [Product 19, N-(5-(3-(dimethylamino)phenyl)thiazolo[5,4-b]pyridin-2-yl)-1-methyl-1H-pyrazole-5-carboxamide]	> 500 nM
CN(C)c1ccc(-c2ccc3nc(NC(=O)c4ccnn4C)sc3n2)cc1 [Product 20, N-(5-(4-(dimethylamino)phenyl)thiazolo[5,4-b]pyridin-2-yl)-1-methyl-1H-pyrazole-5-carboxamide]	< 100 nM
Cn1nccc1C(=O)Nc1nc2ccc(-c3ccccc3N3CCCC3)nc2s1 [Product 21, 1-Methyl-N-(5-(2-(pyrrolidin-1-yl)phenyl)thiazolo[5,4-b]pyridin-2-yl)-1H-pyrazole-5-carboxamide]	> 500 nM
